Assay results as given in patent US20150183791A1, “IMIDAZO[1,2-b]PYRIDAZINE-BASED COMPOUNDS, COMPOSITIONS COMPRISING THEM, AND METHODS OF THEIR USE” (LEXICON PHARMACEUTICALS, INC., priority 2013, published 2015).

What was measured:
[1] = target: AAK1 (full-length human protein) (Homo sapiens, UniProt Q2M2I8); experiment: P81 filter plate assay; type: biochemical
Description: Compounds were serially diluted into a Labcyte LDV plate (Labcyte, cat# LP-0200) using a Mutiprobe (PerkinElmer) and Biomek FX (Beckman Coulter) so that the highest compound concentration was at 96 μM. Compounds were then pinged (75 nL per well) into a Greiner 384-well reaction plate (Greiner, #781076) using an ECHO 550 Liquid Handler (Labcyte). A total of 12 μl reaction buffer (IMAP buffer containing Tween and DTT, from Molecular Devices) was then added to each well of columns 1 and 13 for the negative controls and 12 μl of 2×AAK1 (0.2 nM full-length human protein, NCBI accession no. NP_055726.2) was added to the remaining wells. Enzyme was then pre-incubated with compound for 10 minutes at room temperature. Reactions were initiated upon Minitrak (PerkinElmer) addition of 12 μl substrate mix containing 2× Mu2 (0.2 μM, full length human protein), 2× cold ATP (2 μM), and 1.3 μCi of hot ^33P-ATP. Reactions proceeded for one hour at room temperature. Meanwhile, Millipore 384-well P81 filter plates (Millipore, catalog # MZPHN0 W10) were placed on a plate washer (Zoom ZW, from Titertek) and pre-wet with 50 μl 1% phosphoric acid. Kinase reactions were then stopped upon addition of 24 μl of 2% phosphoric acid to each well and the Minitrak was then used to transfer 40 μl from each well into the pre-wet Millipore 384-well P81 filter plates. Reaction mixtures were incubated for 10 minutes at room temperature in the P81 plates, followed by washing five times with 100 μl/well of 1% phosphoric acid using the Zoom filter washer. The bottom of each filter plate was sealed followed by addition of 20 μl Microscint 40 to each well, sealing the top of the plates with Flashplate cover, and then waiting one hour until reading on the TopCount (Perkin Elmer).

[2] = target: T1, AAK1 (full length human) transfected with Flag/AP2MI in HEK293F cells; phospho-mu2 (Homo sapiens, UniProt Q2M2I8); experiment: HEK281 cell-based assay; conditions: HEK293F cells transfected with human AAK1 and AP2M1, 3 hours with compound, phospho-mu2 Western blot normalized to total Mu2
T1 construct: HA; expressed in transfected cells; host or cells: HEK293F
Description: HEK293F cells were cultured in media containing DMEM (Gibco, cat. #11965), 10% FBS (SAFC Biosciences, cat. #12103C), 1×GPS (glutamine, penicillin and streptomycin). On day one, cells were plated on a 10 cm dish so that they are ˜80% confluent at time of transfection. Roughly 12 million cells were in a 10 cm dish at time of transfection. On day two, each dish was transfected with 48 ug DNA and 144 ul Lipofectamine 2000 (Invitrogen, cat.#11668-019). The DNA was comprised of a mixture (per 10 cm dish) containing 3 ug AAK1/HA/pIRES (full length human, NCBI accession no. NP_055726.2), 45 μg Flag/AP2MI/pcDNA (full length human), and 1.5 ml OPTI-MEM. The Lipofectamine 2000 is made up of a mixture (per 10 cm dish) containing 144 μl Lipofectamine 2000 and 1.5 ml OPTI-MEM. Each mixture was transferred to individual 15 ml tubes and incubated at room temperature for 5 minutes, and then the two mixes were combined and incubated at room temperature for 20 minutes. Growth media was then aspirated from each 10 cm plate and replaced with 10 ml of DMEM+10% FBS (no GPS). Finally, 3 ml DNA/Lipofectamine mix was added to each 10 cm dish and mix gently followed by incubate of plate overnight at 37° C. and 5% CO2.
On day three, compounds were diluted in 100% DMSO at 1000× final concentration, followed by 3-fold serial dilutions for a total of 5 concentrations tested. Four compounds were tested per 10 cm dish. One ul of each compound dilution was then pipetted into a deep-well, 96-well plate, followed by addition of 500 μl DMEM+0.5% FBS into each well for a 2× final concentration of each compound. Cells were resuspended in a 10 cm dish by simple pipetting (HEK293 cells come off the plate that easy at this point) and then transferred to a 50 ml conical tube and pelleted by centrifugation at 1000 rpm for 5 min. Cell pellets were then resuspended in 2.75 ml DMEM+0.5% FBS per 10 cm dish and 100 μl of cell suspension transferred into each well of 96-well TC plate. Finally, 100 μl of 2× compound diluted in DMEM+0.5% FBS was then added into wells containing cell suspension for a 1× final concentration. Plates were then incubated at 37° C. and 5% CO2 for 3 hours followed by transferring of cell suspensions from each well into 12-tube PCR strips. The PCR strips were spun in a tip rack at 1000 rpm for 5 minutes to pellet cells and media was then removed by pipetting without disturbing the cell pellet.
To prepare for Western Blot analysis, cell pellets were resuspend in 40 ul 1×LDS-PAGE sample buffer (Invitrogen, cat.# NP0008) +2× Halt phophatase and protease inhibitor cocktail (Thermo Scientific, cat.#1861284), followed by sonicating each with microtip sonicator set at 5 for 8-10 seconds. Five ul of 10× NuPage Sample Reducing Agent (with […]) was to each sample followed by heat denaturing at 70 C for 10 min on PCR machine. A total of 10 μl per sample was loaded into each lane of a 4-20% Tris-Glycine Criterion 26-well gel (Biorad, cat.#345-0034) for the phospho-mu2 blot and 10 μl per lane in a 4-12% Bis-Tris (+MES buffer) NuPAGE 26-well gel (Invitrogen, cat.# WG1403BX10) for the mu2 blot. For controls, 2 ng of phospho-mu2 or 20 ng mu2/Flag proteins were loaded in the last well of each gel. After SDS-PAGE, samples on each gel were transferred to PVDF membrane using an iBlot and membranes were blocked for one hour in TBST+5% milk, followed by wash 3× for 5-10 min with TBST. Criterion gels were probed with rabbit anti-phospho-mu2 (1:5000; a rabbit polyclonal antibody produced by New England Peptide and affinity purified at Lexicon) in TBST+5% BSA, whereas, NuPAGE gels were probed with mouse anti-Flag (1:500; Sigma, cat.# F1804) in TBST+5% milk, and these primary antibodies were incubated overnight at 4° C. on a rocker. […]

[3] = 0.2 nM-scale full-length human AAK1, Mu2 substrate, 33P-ATP, one hour at room temperature, class symbols

T1 sequence (Q2M2I8 1-863 isoform Q2M2I8-2): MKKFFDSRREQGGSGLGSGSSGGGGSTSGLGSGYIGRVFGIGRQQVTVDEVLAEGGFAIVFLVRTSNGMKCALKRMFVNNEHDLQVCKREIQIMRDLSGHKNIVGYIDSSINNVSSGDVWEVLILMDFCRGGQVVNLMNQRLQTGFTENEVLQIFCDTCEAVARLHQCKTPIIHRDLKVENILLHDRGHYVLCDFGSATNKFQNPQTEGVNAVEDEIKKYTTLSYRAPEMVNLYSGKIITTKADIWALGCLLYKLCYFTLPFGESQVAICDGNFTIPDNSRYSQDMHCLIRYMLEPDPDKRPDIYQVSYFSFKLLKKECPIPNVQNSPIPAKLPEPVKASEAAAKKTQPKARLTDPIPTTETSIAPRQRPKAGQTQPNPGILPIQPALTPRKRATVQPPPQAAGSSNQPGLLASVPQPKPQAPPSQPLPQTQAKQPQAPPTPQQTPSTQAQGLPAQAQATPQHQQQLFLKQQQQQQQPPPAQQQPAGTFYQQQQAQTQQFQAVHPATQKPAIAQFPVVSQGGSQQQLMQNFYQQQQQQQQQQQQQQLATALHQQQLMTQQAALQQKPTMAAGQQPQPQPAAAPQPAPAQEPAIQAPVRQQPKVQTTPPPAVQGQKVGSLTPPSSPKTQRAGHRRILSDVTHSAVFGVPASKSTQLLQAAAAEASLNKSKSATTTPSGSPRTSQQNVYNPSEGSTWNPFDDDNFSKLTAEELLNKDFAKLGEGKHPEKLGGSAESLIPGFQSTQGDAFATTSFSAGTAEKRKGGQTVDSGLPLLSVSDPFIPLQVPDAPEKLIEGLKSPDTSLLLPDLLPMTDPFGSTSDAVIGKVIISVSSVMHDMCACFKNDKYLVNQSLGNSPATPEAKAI
Sequence of AAK1 (full-length human protein) (Q2M2I8 1-863 isoform Q2M2I8-2): as above

| Compound | IC50 [1, 3] [nM] | IC50 ([1]; same assay, given as numeric bound instead of class symbol) [nM] | CBA IC50 [2] |
| --- | --- | --- | --- |
| CC(=O)c1cccc(-c2ccc3ncc(-c4ccc(CN)cc4)n3n2)c1 [1-(3-(3-(4-(Aminomethyl)phenyl)imidazo[1,2-b]pyridazin-6-yl)phenyl)ethanone] | ≤ 10 |  | ** (“**” means a value of less than or equal to 0.1 μM) |
| CC(=O)c1cccc(-c2ccc3ncc(-c4ccc(C(N)=O)cc4)n3n2)c1 [4-(6-(3-Acetylphenyl)imidazo[1,2-b]pyridazin-3-yl)benzamide] |  |  | * (“*” means less than or equal to 1.0 μM) |
| CC(C)CCC(=O)c1cccc(-c2ccc3ncc(-c4ccc(CN)cc4)n3n2)c1 [1-(3-(3-(4-(Aminomethyl)phenyl)imidazo[1,2-b]pyridazin-6-yl)phenyl)-4-methylpentan-1-one] | ≤ 10 |  | ** (“**” means a value of less than or equal to 0.1 μM) |
| CC(=O)c1cccc(-c2ccc3ncc(Br)n3n2)c1 [1-(3-(3-Bromoimidazo[1,2-b]pyridazin-6-yl)phenyl)ethanone] |  |  | * (“*” means less than or equal to 1.0 μM) |

Further lines, with some results ahead:

| IC50 [1, 3] [nM] | IC50 ([1]; same assay, given as numeric bound instead of class symbol) [nM] | Compound | CBA IC50 [2] |
| --- | --- | --- | --- |
| ≤ 10 |  | CC(C)CNC(=O)c1cccc(-c2ccc3ncc(-c4ccc(CN)cc4)n3n2)c1 [3-(3-(4-(Aminomethyl)phenyl)imidazo[1,2-b]pyridazin-6-yl)-N-isobutylbenzamide] | ** (“**” means a value of less than or equal to 0.1 μM) |
| ≤ 10 |  | CNC(=O)c1ccc(-c2cnc3ccc(-c4cccc(C(=O)NCC(C)C)c4)nn23)cc1 [N-isobutyl-3-(3-(4-(methylcarbamoyl)phenyl)imidazo[1,2-b]pyridazin-6-yl)benzamide] | * (“*” means less than or equal to 1.0 μM) |
| ≤ 10 |  | CC(C)CNC(=O)c1cncc(-c2ccc3ncc(-c4ccc(CN)cc4)n3n2)c1 [5-(3-(4-(Aminomethyl)phenyl)imidazo[1,2-b]pyridazin-6-yl)-N-isobutylnicotinamide] | ** (“**” means a value of less than or equal to 0.1 μM) |
|  | > 300 | CC(C)CNC(=O)c1cccc(-c2ccc3ncc(-c4ccncc4)n3n2)c1 [N-isobutyl-3-(3-(pyridin-4-yl)imidazo[1,2-b]pyridazin-6-yl)benzamide] | * (“*” means less than or equal to 1.0 μM) |
| ≤ 10 |  | COc1cnccc1-c1cnc2ccc(-c3cccc(C(=O)NCC(C)C)c3)nn12 [N-isobutyl-3-(3-(3-methoxypyridin-4-yl)imidazo[1,2-b]pyridazin-6-yl)benzamide] | * (“*” means less than or equal to 1.0 μM) |
